Laboratory results taken from patent US9399031B2, “Combined use of amides of mono- and dicarboxylic acids and silymarin in the treatment of renal diseases” (Epitech Group S.r.l., priority 2013, dated 2016).

Assays:
[1] = system: renal ischemia/reperfusion; assay: Experimental renal ischemia/reperfusion model; assay type: in vivo; settings: mice, bilateral renal ischemia 30 minutes, 6 hours post-reperfusion; compared to the carrier alone; FIGS. 1 and 2
Method: After being anesthesized with sodium pentobarbital (50 mg/kg i.p.), mice were placed on a heated mat to keep their body temperature at 37° C. during surgery. After a laparatomy, mice were subjected to bilateral renal ischemia during 30 minutes, during which renal arteries and veins were occluded by microaneurysm clamps. The ischemia time selected was based on the time capable of maximizing the reproducibility of the renal function unbalance, while minimizing animal death. After removing renal clamps, kidneys were observed during additional 5 minutes to confirm complete reperfusion, and subsequently 1 ml saline was injected into the abdomen and incision was sutured. […] All plasma samples were analyzed for assessing the biochemical parameters within 24 hours post-withdrawal. Plasma concentrations of urea and creatinine were measured as indicators of the impaired glomerular function. […] Absorbance change rate was spectrometrically measured at 650 nm. […] Determination of Malondialdehyde Levels Malondialdehyde (MDA) levels in kidneys were determined as an indicator of lipid peroxidation. […] Supernatant absorbance was spectrometrically measured at 532 nm. MDA levels were expressed as μM/100 mg wet tissue. […] Total scoring for each kidney was calculated by the sum of all the 100 scores, with a maximum score of 300. […]

[2] = system: dismetabolic neuropathies; settings: animal model of diabetes by streptozotocin; cited from earlier work

For `CCCCCCCCCCCCCCCC(=O)NCCO` [PEA, Palmitoylethanolamide], which “functional and tissue parameters for kidneys (plasma AST, γGT, creatinine, urea; MDA levels, MPO renal activity, histologic assessment)” value [1] is on record?
Its value is “neither Silymarin alone nor PEA alone, when used at the same doses as in the combination, showed an improvement effect”.

And the allodynia [2]?
The allodynia was “suppresses allodynia”.

What about the blood insulin levels [2] of the same molecule?
Its blood insulin levels is “increase in blood insulin levels”.

What about the body weight [2] of the same molecule?
Its body weight is “partial body weight recovery”.
